{
  "source": "patent US20260273059A1",
  "about": "“METHODS OF EVADING IMMUNE REJECTION” (William Marsh Rice University, priority 2023, published 2026)",
  "test_system": "cytokine producing, kill switch inducible cell line",
  "experiment": "Small molecule inducible kill switch",
  "assay_type": "cell-based",
  "conditions": "100 nM",
  "from_the_text": "Cell engineering for cells equipped with a small molecule inducible kill switch consist of a base epithelial cell line and a highly modular PiggyBAC transposon system. This vector system is composed of a strong promotor that is constitutively expressed, a kozak translation initiation sequence, the gene of interest (any cytokine, chemokine, or other protein), an internal ribosome entry site, a kill switch gene, a puromycin resistance gene and a poly-A tail in between two inverted terminal repeat sequences. Variation to this system requires only gene of interest swapping and allows for quick and easy “plug and play” cell engineering. The kill switch can be added to enhance the safety of cells engineered to produce the following cytokines: IL-1, IL-1a, IL-1b, IL-1RA, IL-2, IL-4, IL-5, IL-6, IL-7, IL-8, IL-9, IL-10, IL-11, IL-12, IL-12a, IL-12b, IL-13, IL-14, IL-15, IL-16, IL-17, IL-20, IFN-α, IFN-b, IFN-c, TNF-α, TNF-b, TGF-b, CCL-1, CCL-2, CCL-3, CCL-4, CCL-5, CCL-6, CCL-7, CCL-8, CCL-9, CCL-10, CCL-11, CCL-12, CCL-13, CCL-14, CCL-15, CCL-16, CCL-18, CCL-19, CCL-20, CCL-21, CCL-22, CCL-23, CCL-24, CCL-25, CCL-26, CCL-27, CCL-28, CXCL1, CXCL2, CXCL3, CXCL4, CXCL5, CXCL6, CXCL7, CXCL8, CXCL9, CXCL10, CXCL11, CXCL12, CXCL13, CXCL14, CXCL15, CXCL16, CXCL17. […]",
  "data": [
    {"compound": "CC[C@H](C(=O)N1CCCC[C@H]1C(=O)O[C@H](CCc1ccc(OC)c(OC)c1)c1cccc(OCC(=O)NCCNC(=O)COc2cccc([C@@H](CCc3ccc(OC)c(OC)c3)OC(=O)[C@@H]3CCCCN3C(=O)[C@@H](CC)c3cc(OC)c(OC)c(OC)c3)c2)c1)c1cc(OC)c(OC)c(OC)c1", "note": "[AP1903, rimiducid]", "values": [
      {"measurement": "time in which the kill switch inducible cell line responds", "result": "less than 24 hours"}
    ]}
  ]
}
